From publication PMC12481576, “Barbituric Acid Derivatives as Covalent Inhibitors of Leishmania braziliensis Dihydroorotate Dehydrogenase” (Journal of Medicinal Chemistry, 2025)
Converted amounts (≈) assume the structure as drawn. Like-named read-outs stand apart in the source and are kept apart here.

Experiments:
[1] = Kinetic solubility assay in PBS pH 7.4; format: physicochemical; conditions: kinetic from dmso stock, 1% DMSO; for solubility kinetic at 2 h: 25 °C, pH 7.4, aqueous buffer, PBS pH 7.4, 200 μM test conc, 2 h at 25 °C; for solubility at 2 h: aqueous buffer, PBS pH 7.4, 200 µM, 2 hours at 25°C
Description: The plate was incubated for 2 h at 25 °C. The precipitates on the incubation plate were removed by filtration and the filtrates were quantified by LC-MS/MS. Calibration curves were prepared for each compound by using 5–6 points. Samples were analyzed by UV–vis.

HsDHODH = target: T1, HsDHODH (Homo sapiens, UniProt Q02127); assay: Selectivity assay: HsDHODH single-dose inhibition (DCIP reduction); format: biochemical
T1 construct: made in house
T1 sequence (Q02127 whole entry): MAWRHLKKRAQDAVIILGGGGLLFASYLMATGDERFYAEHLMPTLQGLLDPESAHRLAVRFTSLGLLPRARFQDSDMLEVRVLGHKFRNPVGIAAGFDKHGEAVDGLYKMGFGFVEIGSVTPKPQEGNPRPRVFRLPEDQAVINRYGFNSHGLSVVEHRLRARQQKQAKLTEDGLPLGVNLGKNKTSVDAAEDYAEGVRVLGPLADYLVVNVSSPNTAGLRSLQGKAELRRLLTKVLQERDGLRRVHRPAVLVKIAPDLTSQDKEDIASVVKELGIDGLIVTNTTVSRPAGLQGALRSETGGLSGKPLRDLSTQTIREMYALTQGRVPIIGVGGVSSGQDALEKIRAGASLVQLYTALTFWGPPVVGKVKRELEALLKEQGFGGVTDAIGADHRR
Procedure, shortened: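 Recombinant human DHODH at 20 nM final, purified by Ni-NTA affinity, tested at a single compound concentration in triplicate. DCIP reduction followed at 610 nm every 3 s over 60 s. Velocity expressed as % activity relative to enzyme control without compound.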

LbDHODH = LbDHODH (Leishmania braziliensis, UniProt E9AI53); assay: Kinact/KI determination from LbDHODH progress curves (kobs vs inhibitor concentration); format: biochemical; conditions: for kinact/KI: slope of kobs vs inhibitor concentration
Sequence of LbDHODH (E9AI53 entry or part of it): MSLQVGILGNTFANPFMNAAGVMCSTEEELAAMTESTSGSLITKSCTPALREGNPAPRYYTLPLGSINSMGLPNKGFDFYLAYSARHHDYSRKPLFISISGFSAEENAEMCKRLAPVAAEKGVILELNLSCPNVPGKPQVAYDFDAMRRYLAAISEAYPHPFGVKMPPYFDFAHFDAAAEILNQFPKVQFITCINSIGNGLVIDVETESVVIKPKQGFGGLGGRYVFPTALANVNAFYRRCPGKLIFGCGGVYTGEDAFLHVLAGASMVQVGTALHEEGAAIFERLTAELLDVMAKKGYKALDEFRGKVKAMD
Excerpt: The Kinact/Ki ratio is a key parameter for evaluating the potency of covalent inhibitors, as it quantitatively measures both their reactivity and affinity for the target enzyme. This parameter integrates two crucial aspects: KI, which reflects the inhibitor’s binding affinity, and Kinact, which describes the rate at which the covalent bond is formed. […] Therefore, this ratio is essential for ranking covalent inhibitors, optimizing their potency, and guiding structure-based drug design.
The experiments were performed in a 96-well microplate reader (SpectraMax Plus 384, Molecular Devices, USA), containing the […] of the buffer 60 mM DCIP, 50 mM Tris pH 8.15, 150 mM KCl, 0.1% Triton X-100, 50 μM DHO and 10 μM of LbDHODH at 165 nM. The reaction was monitored every 3 s at 610 nm over a period of 60 s, in triplicate, for the control and each concentration of the inhibitor. All assays were performed without incubation (0h) and with 4-h preincubation of the inhibitor with LbDHODH, using 5% DMSO (v/v) as control. […] To determine the IC50 values, the activity percentage data were fitted as a function of the concentration logarithm by nonlinear regression analysis (variable hillslope) using Prism 9.0 software (GraphPad Software, USA). […] The resulting kobs values were plotted as a function of inhibitor concentration, and the data in the initial linear region was fit to determine the slope, which is kinact/KI. All regressions were performed with GraphPad Prism 9.

THP-1 cells = assay: Cell viability / cytotoxicity assay (PrestoBlue, 72 h); format: cell-based; conditions: THP-1 cell line, 72 h, max 200 μM
Procedure, shortened: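 PMA-differentiated THP-1 cells (150 ng/mL PMA, 48 h; then 24 h in fresh medium) were exposed to compounds in serial dilution from 200 μM for 72 h at 37 °C, 5% CO2. Viability was read by PrestoBlue fluorescence (ex 560/em 590 nm) after 2 h.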

[2] = read-out: Single dose (0h) % activity
[3] = read-out: Single dose (4h) % activity

SMILES	solubility kinetic at 2 h [1] [µM]	solubility at 2 h [1] [µg/mL]	activity at 100 µM (HsDHODH; [2]) [%]	activity at 100 µM (HsDHODH; [3]) [%]	Kobs (LbDHODH; inhibitor 0.18 µM) [s⁻¹]	Kobs (LbDHODH; inhibitor 0.390625 µM) [s⁻¹]	Kobs (LbDHODH; inhibitor 0.78125 µM) [s⁻¹]	Kobs (LbDHODH; inhibitor 1.5625 µM) [s⁻¹]	Kobs (LbDHODH; inhibitor 3.125 µM) [s⁻¹]	Kobs (LbDHODH; inhibitor 6.25 µM) [s⁻¹]	Kobs (LbDHODH; inhibitor 12.5 µM) [s⁻¹]	Kobs (LbDHODH; inhibitor 25 µM) [s⁻¹]	Kobs (LbDHODH; inhibitor 100 µM) [s⁻¹]	Kobs (LbDHODH; inhibitor 200 µM) [s⁻¹]	kinact/KI (LbDHODH) [M⁻¹ s⁻¹]	inhibition of HsDHODH in single-dose assays (HsDHODH; 100 μM, with or without 4-h incubation)	Kobs (LbDHODH; inhibitor 0.0975 µM) [s⁻¹]	Kobs (LbDHODH; inhibitor 0.195 µM) [s⁻¹]	CC50 (THP-1 cells)
O=C1NC(=O)C(=Cc2ccc(N3CCOCC3)cc2[N+](=O)[O-])C(=O)N1 [2e, 5-(4-Morpholino-2-nitrobenzylidene)pyrimidine-2,4,6(1H,3H,5H)-trione]	178 (≈ 61.8 µg/mL)	53.4 (≈ 154 µM)	80 ± 9	86 ± 8	–	–	–	–	–	–	–	–	–	–	–	–	–	–	–
O=C1NC(=O)C(=Cc2ccc(O)c([N+](=O)[O-])c2)C(=O)N1 [2d, 5-(4-Hydroxy-3-nitrobenzylidene)pyrimidine-2,4,6(1H,3H,5H)-trione]	190 (≈ 52.7 µg/mL)	52.7 (≈ 190 µM)	90 ± 10	92 ± 9	0.003357 ± 0.002	0.003416 ± 0.002	0.003424 ± 0.002	0.003613 ± 0.002	0.0038 ± 0.002	0.004522 ± 0.002	0.004748 ± 0.002	0.005571 ± 0.002	0.01122 ± 0.001	0.01796 ± 0.003	73	–	–	–	–
O=C1NC(=O)C(=Cc2ccc(-c3ccccc3F)[nH]2)C(=O)N1 [2h, 5-((5-(2-Fluorophenyl)-1H-pyrrol-2-yl)methylene)pyrimidine-2,4,6(1H,3H,5H)-trione]	4.63 (≈ 1.39 µg/mL)	1.6 (≈ 5.35 µM)	100 ± 11	71 ± 7	–	–	–	–	–	–	–	–	–	–	–	–	–	–	–
O=C1NC(=O)C(=C/C=C/c2ccccc2)C(=O)N1 [2i, (E)-5-(3-Phenylallylidene)pyrimidine-2,4,6(1H,3H,5H)-trione]	41.4 (≈ 10 µg/mL)	10 (≈ 41.3 µM)	93 ± 11	91 ± 9	–	0.003028 ± 0.002	0.003309 ± 0.002	0.003849 ± 0.002	0.005668 ± 0.003	0.007929 ± 0.002	0.02055 ± 0.002	0.0045 ± 0.002	–	–	767	no inhibition	0.002849 ± 0.002	0.002994 ± 0.002	no cytotoxicity
COc1cc(C=C2C(=O)NC(=O)NC2=O)ccc1O [2c, 5-(4-Hydroxy-3-methoxybenzylidene)pyrimidine-2,4,6(1H,3H,5H)-trione]	195 (≈ 51 µg/mL)	51 (≈ 194 µM)	80 ± 9	83 ± 8	–	–	–	–	–	–	–	–	–	–	–	–	–	–	–
